The values that follow come from ChEMBL document CHEMBL1201862, “PubChem BioAssay data set” (2004).

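How tested: cells in 96-well plates exposed to compound for 48 hours at five concentrations. At the GI50, growth is halved.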 Activity calls are given as the source filed them. Rule as the data show it: active = GI50 up to about 1.1 µM and inactive = higher.

Among the test systems are 786-0; CCRF-CEM; COLO 205; DU-145; HCT-116; K562; MCF7; NCI/ADR-RES; PC-3; RXF 393; SF-268; SK-MEL-28; SNB-19; SR; T47D; UACC-257; UACC-62; UO-31.
Holding throughout (experiment): NCI-60 cell line screen, 48 h

As for `COc1cccc(C2c3cc4c(cc3OC(N3CCCC3)C2C)OCO4)c1O` (stereo not drawn), the GI50 is 4.89 µM (inactive) in the assay with 786-0; 4.69 µM (inactive) in the assay on CCRF-CEM; 3.37 µM (inactive) in the assay with COLO 205; 4.41 µM (inactive) with DU-145; 4.61 µM (inactive) with HCT-116; 3.74 µM (inactive) in the assay on K562. The GI50 in the assay on MCF7 was 6.68 µM (inactive); in the assay on NCI/ADR-RES, 3.7 µM (inactive); in the assay on PC-3, 4.49 µM (inactive); in the assay on RXF 393, 3.58 µM (inactive); in the assay on SF-268 it was 5.97 µM (inactive); in the assay on SK-MEL-28 it was 6.5 µM (inactive). Further, the GI50 in the assay with SNB-19 was 7.6 µM (inactive); with SR, 4.38 µM (inactive); with T47D, 9.95 µM (inactive); with UACC-257, 4.41 µM (inactive); with UACC-62, 4.33 µM (inactive); in the assay on UO-31 it was 8.26 µM (inactive).
Take `Cc1cc(=O)oc2c(CN(CCCl)CCCl)c(O)ccc12`: the GI50 in the assay with 786-0 was 33.4 µM (inactive); in the assay on CCRF-CEM, 2.47 µM (inactive); in the assay on COLO 205 it was 18 µM (inactive); in the assay on DU-145, 36.5 µM (inactive); with HCT-116, 27.8 µM (inactive); in the assay on K562 it was 34.5 µM (inactive). Also, the GI50 is 11.4 µM (inactive) in the assay on MCF7; 71.9 µM (inactive) in the assay with NCI/ADR-RES; 44 µM (inactive) in the assay with PC-3; 30.5 µM (inactive) in the assay on RXF 393; 59.3 µM (inactive) in the assay with SF-268; 65.5 µM (inactive) in the assay with SK-MEL-28. For the same compound, the GI50 in the assay with SNB-19 is 24.3 µM (inactive); in the assay with SR it was 43.6 µM (inactive); with T47D it was 31.5 µM (inactive); in the assay on UACC-257 it was > 100 µM (inactive); with UACC-62 it was 5.56 µM (inactive); in the assay with UO-31 it was 41.8 µM (inactive).
On to `CCN1CN(c2ccccc2)C2(CCN(CCCSc3ccc(F)cc3)CC2)C1=O`, for which the GI50 in the assay with 786-0 was 13.7 µM (inactive); in the assay with CCRF-CEM it was 4.24 µM (inactive); in the assay with COLO 205, 2.41 µM (inactive); in the assay with DU-145, 4.65 µM (inactive); in the assay on HCT-116, 4.36 µM (inactive); with K562, 12.9 µM (inactive). The GI50 was 3.48 µM (inactive) in the assay on MCF7; 12.2 µM (inactive) in the assay with NCI/ADR-RES; 11.8 µM (inactive) with PC-3; 12.9 µM (inactive) in the assay with RXF 393; 13.9 µM (inactive) in the assay with SF-268; 17.3 µM (inactive) in the assay with SK-MEL-28. The GI50 was 10.1 µM (inactive) with SNB-19; 11.8 µM (inactive) in the assay with SR; 3.26 µM (inactive) with T47D; 6.11 µM (inactive) with UACC-257; 15.1 µM (inactive) with UACC-62; 5.97 µM (inactive) in the assay with UO-31.
On to `Cc1c2c(n(C)c1C)C(=O)C1C(C2=O)C2(C)c3ccccc3C1(C)c1ccccc12` (stereo not drawn), for which the GI50 in the assay on 786-0, in the assay on CCRF-CEM, in the assay on COLO 205, in the assay on DU-145, with HCT-116 and in the assay on K562 was > 100 µM (inactive) in each case. Besides, the GI50 in the assay on MCF7, with NCI/ADR-RES, with PC-3, in the assay with RXF 393, in the assay with SF-268 and with SK-MEL-28 was > 100 µM (inactive) each time. The GI50 with SNB-19 is > 100 µM (inactive); in the assay with SR, 24.4 µM (inactive); in the assay on T47D, > 100 µM (inactive); in the assay on UACC-257, > 100 µM (inactive); in the assay on UACC-62 it was > 100 µM (inactive); with UO-31, > 100 µM (inactive).
Regarding `O=C(O)C#Cc1ccc([N+](=O)[O-])cc1`, the GI50 in the assay on 786-0, in the assay with CCRF-CEM, in the assay on COLO 205, in the assay on DU-145, in the assay on HCT-116 and with K562 was > 100 µM (inactive) each time. Further, the GI50 in the assay on MCF7, with NCI/ADR-RES, in the assay on PC-3, in the assay on RXF 393, in the assay with SF-268 and in the assay on SK-MEL-28 was > 100 µM (inactive) in each case. Moreover, the GI50 with SNB-19, in the assay on SR, in the assay on T47D, in the assay with UACC-257, with UACC-62 and with UO-31 was > 100 µM (inactive) throughout.
Consider `CCOC1(OCC)N=C(N)C2(C#N)C3(C(=O)N(C(C)C)N=C3C)C12C#N` (stereo not drawn), for which the GI50 in the assay with 786-0 was > 100 µM (inactive); with CCRF-CEM, 38.5 µM (inactive); in the assay on COLO 205 it was > 100 µM (inactive); in the assay with DU-145, > 100 µM (inactive); in the assay on HCT-116, > 100 µM (inactive); in the assay on K562, > 100 µM (inactive). Also, the GI50 in the assay with MCF7, in the assay on NCI/ADR-RES, in the assay with PC-3, in the assay on RXF 393, with SF-268 and in the assay with SK-MEL-28 was > 100 µM (inactive) each time. Further, the GI50 was > 100 µM (inactive) in the assay on SNB-19; 45.4 µM (inactive) in the assay on SR; > 100 µM (inactive) in the assay with T47D; > 100 µM (inactive) with UACC-257; > 100 µM (inactive) with UACC-62; > 100 µM (inactive) with UO-31.
Consider `CCOC(=O)CCC(NC(=O)c1ccc(Oc2nc3c(N)cc(C(F)(F)F)cc3nc2-c2ccccc2)cc1)C(=O)OCC` (stereo not drawn), for which the GI50 in the assay on 786-0 is 3.42 µM (inactive); with CCRF-CEM, > 100 µM (inactive); in the assay on COLO 205, > 100 µM (inactive); with DU-145, 17.3 µM (inactive); with HCT-116 it was 2.14 µM (inactive); in the assay with K562, > 100 µM (inactive). The GI50 in the assay on MCF7 was 37.1 µM (inactive); in the assay on NCI/ADR-RES, 1.34 µM (inactive); in the assay on PC-3, 8.32 µM (inactive); with RXF 393 it was 0.402 µM (active); in the assay on SF-268, 13.8 µM (inactive); in the assay on SK-MEL-28 it was > 100 µM (inactive). In addition, the GI50 in the assay on SNB-19 was 30.5 µM (inactive); in the assay with SR, 9.95 µM (inactive); with T47D it was 39.6 µM (inactive); with UACC-257, > 27.9 µM (inactive); with UACC-62, > 46.3 µM (inactive); with UO-31, 70 µM (inactive).
On to `CC(=O)NC1C(OCc2ccccc2)OC(CO)C(O)C1OC(C)C(=O)NC(C)C(=O)NC(CCC(=O)NCCCCNc1c2ccccc2nc2cccc([N+](=O)[O-])c12)C(N)=O` (stereo not drawn), for which the GI50 with 786-0 is 0.0198 µM (active); in the assay with CCRF-CEM, 0.114 µM (active); in the assay on COLO 205 it was 0.0327 µM (active); in the assay on DU-145, 0.00887 µM (active); in the assay on HCT-116, 0.00748 µM (active); with K562, 0.0106 µM (active). Besides, the GI50 with MCF7 was 0.00995 µM (active); with NCI/ADR-RES, 0.123 µM (active); in the assay on PC-3, 0.0989 µM (active); in the assay on RXF 393 it was 0.0199 µM (active); in the assay on SF-268 it was 0.0357 µM (active); in the assay on SK-MEL-28 it was 0.163 µM (active). For the same compound, the GI50 is 0.021 µM (active) in the assay with SNB-19; 0.00796 µM (active) with SR; 0.291 µM (active) with T47D; 0.121 µM (active) in the assay on UACC-257; 0.0286 µM (active) in the assay on UACC-62; 0.0738 µM (active) with UO-31.
As for `CO[C@@H]1C=C[C@@]23c4cc5c(cc4C(O)N(CC2O)C3C1)OCO5` (stereo partly drawn), the GI50 is 3.21 µM (inactive) with 786-0; 1.79 µM (inactive) in the assay on CCRF-CEM; 2.94 µM (inactive) with COLO 205; 3.81 µM (inactive) with DU-145; 2.97 µM (inactive) in the assay on HCT-116; 3.48 µM (inactive) in the assay on K562. Also, the GI50 is 1.98 µM (inactive) with MCF7; 13.9 µM (inactive) in the assay with NCI/ADR-RES; 3.56 µM (inactive) in the assay on PC-3; 5.62 µM (inactive) in the assay on RXF 393; 7.36 µM (inactive) with SF-268; 5.04 µM (inactive) with SK-MEL-28. Moreover, the GI50 was 3.3 µM (inactive) with SNB-19; 4 µM (inactive) in the assay with SR; 3.35 µM (inactive) with T47D; 1.86 µM (inactive) in the assay on UACC-257; 3.13 µM (inactive) in the assay on UACC-62; 3.68 µM (inactive) with UO-31.
`Cn1c(=O)c2c(ncn2CCCCOc2ccc3c(c2)[n+]([O-])nc(N)[n+]3[O-])n(C)c1=O`: the GI50 is 29 µM (inactive) with 786-0; 32.7 µM (inactive) in the assay with CCRF-CEM; 17 µM (inactive) with COLO 205; 44.2 µM (inactive) with DU-145; 28.1 µM (inactive) in the assay on HCT-116; 20.9 µM (inactive) in the assay on K562. For the same compound, the GI50 in the assay with MCF7 was 11.9 µM (inactive); in the assay with NCI/ADR-RES, > 100 µM (inactive); in the assay on PC-3 it was 21.3 µM (inactive); in the assay on RXF 393 it was 14.9 µM (inactive); in the assay with SF-268, 32.9 µM (inactive); in the assay on SK-MEL-28 it was 34.7 µM (inactive). The GI50 with SNB-19 is 31.1 µM (inactive); with SR, 49.2 µM (inactive); in the assay on T47D, 2.38 µM (inactive); in the assay with UACC-257 it was 23.9 µM (inactive); in the assay on UACC-62, 17.1 µM (inactive); in the assay on UO-31 it was > 100 µM (inactive).
In the case of `COc1ccc(Nc2nc(N)c(C(=O)c3ccccc3)s2)cc1`, the GI50 is 0.0494 µM (active) in the assay on 786-0; 0.0226 µM (active) in the assay on CCRF-CEM; 0.0398 µM (active) in the assay with COLO 205; 0.178 µM (active) in the assay with DU-145; 0.0267 µM (active) with HCT-116; 0.0102 µM (active) in the assay with K562. For the same compound, the GI50 in the assay on MCF7 was 0.54 µM (active); in the assay with NCI/ADR-RES, < 0.01 µM (active); in the assay with PC-3, 0.0396 µM (active); in the assay on RXF 393 it was 0.19 µM (active); in the assay with SF-268 it was 0.839 µM (active); with SK-MEL-28, 44.4 µM (inactive). The GI50 with SNB-19 is 0.037 µM (active); in the assay with SR it was < 0.01 µM (active); with T47D it was 40.2 µM (inactive); in the assay on UACC-257 it was 29.5 µM (inactive); in the assay on UACC-62, 0.05 µM (active); with UO-31, 0.0912 µM (active).
